Assay results: ChEMBL document CHEMBL1136232, “Novel inhibitors of an emerging target in Mycobacterium tuberculosis; substituted thiazolidinones as inhibitors of dTDP-rhamnose synthesis” (2003)
Values after ≈ are worked out from the molar mass of the structure shown. Active and inactive are the calls of the source. The rule behind the calls is not given here.

Assays:
[1] = tested on: Mycobacterium tuberculosis; experiment: Percentage inhibition against Mycobacterium tuberculosis at a concentration of 20 uM; format: functional
[2] = tested on: Mycobacterium tuberculosis; experiment: Inhibitory activity against Mycobacterium tuberculosis H37Ra; format: functional
[3] = tested on: Mycolicibacterium smegmatis; experiment: Percentage inhibition against Rm1BCD at 20 uM
[4] = tested on: Mycolicibacterium smegmatis; experiment: Percentage inhibition against Rm1D at 20 uM
[5] = tested on: Mycolicibacterium smegmatis; experiment: Percentage inhibition against Rm1C at 20 uM; NA is not active
[6] = tested on: Mycolicibacterium smegmatis; experiment: Percentage inhibition against Rm1D at 20 uM; NA is not active
[7] = tested on: Mycolicibacterium smegmatis; experiment: Percentage inhibition against Rm1C at 20 uM

| Structure (SMILES) | inhibition at 20 µM [1] [%] | MIC [2] [µg/mL] | also measured |
| --- | --- | --- | --- |
| CCOC(=O)C(C(C)C)N1C(=O)C(C)SC1c1ccc(-c2ccccc2)cc1 (stereo unspecified) | 52.5 | 50 (≈ 126 µM) | – |
| COc1cc(C2SC(C)C(=O)N2C(Cc2ccc([N+](=O)[O-])cc2)C(=O)O)cc(OC)c1O (stereo unspecified) | – | 25 (≈ 54.1 µM) | inhibition [3]: 42%; inhibition [4]: 71%; inhibition [5]: inactive |
| COC(=O)C(CCSC)N1C(=O)CSC1c1ccc(N(C)C)cc1 (stereo unspecified) | 100 | > 200 | – |
| CCOC(=O)C(C)N1C(=O)CSC1c1cccc(Oc2ccccc2)c1 (stereo unspecified) | 51 | 50 (≈ 135 µM) | – |
| CCOC(=O)C(C(C)C)N1C(=O)C(C)SC1c1ccc2c(c1)c1ccccc1n2CC (stereo unspecified) | 52 | 25 (≈ 57 µM) | – |
| CCn1c2ccccc2c2cc(C3SC(C)C(=O)N3C(Cc3c[nH]c4ccccc34)C(=O)O)ccc21 (stereo unspecified) | 70.5 | 50 (≈ 100 µM) | – |
| CCOC(=O)C(C(C)C)N1C(=O)C(C)SC1c1cccc(OC)c1O (stereo unspecified) | 60 | 25 (≈ 68 µM) | – |
| CCn1c2ccccc2c2ccc(C3SCC(=O)N3C(Cc3c[nH]c4ccccc34)C(=O)OC)cc21 (stereo unspecified) | – | > 200 | inhibition [3]: 45%; inhibition [6]: inactive; inhibition [7]: 48% |
| CC[C@H](C)C(C(=O)OC)N1C(=O)CSC1c1ccc(N(C)C)cc1 (stereo partly specified) | 110 | > 200 | – |
| CCOC(=O)CCC(C(=O)OCC)N1C(=O)CSC1c1cccc(Oc2ccccc2)c1 (stereo unspecified) | 64 | 50 (≈ 109 µM) | – |
| O=C(O)C(Cc1cc2ccccc2[nH]1)N1C(=O)CSC1c1ccc(-c2ccccc2)cc1 (stereo unspecified) | 66.5 | 50 (≈ 113 µM) | – |
